Measurements as given in patent publication US11564913B2, “Compositions and methods for treating cancer” (Children's Hospital Medical Center, priority 2019, dated 2023).

Tests used:
[1] = test system: 369 recombinant wild-type kinases; test: Kinome inhibitory activity (Reaction Biology HotSpot); type: biochemical
Excerpt: (§1) FIG. 7: IODVA1 Kinome Inhibitory Activity.
(§2) IODVA1 has two pyridine groups attached to a central imidazole group. […] To test this hypothesis, applicants evaluated the potential of IODVA1 to interfere with the ability of 369 recombinant wild-type kinases to hydrolyze ATP.
(§3) The Reaction Biology (www.reactionbiology.com) HotSPot miniaturized radioisotope filter binding assay platform was used to measure the activity of 369 wild-type kinases in presence of a single IODVA1 dose (Anastassiadis et al., 2011). In brief, for each reaction, kinase and substrate were mixed in a buffer containing 20 mM HEPES (pH 7.5), 10 mM MgCl2, 1 mM EGTA, 0.02% Brij35, 0.02 mg/ml BSA, 0.1 mM Na3VO4, 2 mM DTT, and 1% DMSO. IODVA1 was then added to a final concentration of 0.5 μM to each reaction mixture. After 20 min incubation at room temperature, reaction was initiated by adding ATP (Sigma-Aldrich) and [γ-^32P]-ATP (PerkinElmer, specific activity of 10 Ci/L). Reactions were incubated for 2 h at room temperature and spotted onto P81 ion exchange cellulose chromatography paper (Whatman). Filter paper was washed in 0.75% phosphoric acid to remove excess ATP. The percent remaining kinase activity relative to a vehicle-containing (DMSO) kinase reaction was calculated for each kinase/IODVA1 pair. Each kinase inhibition assay was done in duplicates and averaged. Data were processed and analyzed in Excel.

YSK4/MAP3K19 = target: T1, YSK4/MAP3K19 (Homo sapiens, UniProt Q56UN5); test: as above; type: biochemical; settings: 0.5 μM
T1 construct: purchased Reaction Biology
T1 sequence (Q56UN5 whole entry): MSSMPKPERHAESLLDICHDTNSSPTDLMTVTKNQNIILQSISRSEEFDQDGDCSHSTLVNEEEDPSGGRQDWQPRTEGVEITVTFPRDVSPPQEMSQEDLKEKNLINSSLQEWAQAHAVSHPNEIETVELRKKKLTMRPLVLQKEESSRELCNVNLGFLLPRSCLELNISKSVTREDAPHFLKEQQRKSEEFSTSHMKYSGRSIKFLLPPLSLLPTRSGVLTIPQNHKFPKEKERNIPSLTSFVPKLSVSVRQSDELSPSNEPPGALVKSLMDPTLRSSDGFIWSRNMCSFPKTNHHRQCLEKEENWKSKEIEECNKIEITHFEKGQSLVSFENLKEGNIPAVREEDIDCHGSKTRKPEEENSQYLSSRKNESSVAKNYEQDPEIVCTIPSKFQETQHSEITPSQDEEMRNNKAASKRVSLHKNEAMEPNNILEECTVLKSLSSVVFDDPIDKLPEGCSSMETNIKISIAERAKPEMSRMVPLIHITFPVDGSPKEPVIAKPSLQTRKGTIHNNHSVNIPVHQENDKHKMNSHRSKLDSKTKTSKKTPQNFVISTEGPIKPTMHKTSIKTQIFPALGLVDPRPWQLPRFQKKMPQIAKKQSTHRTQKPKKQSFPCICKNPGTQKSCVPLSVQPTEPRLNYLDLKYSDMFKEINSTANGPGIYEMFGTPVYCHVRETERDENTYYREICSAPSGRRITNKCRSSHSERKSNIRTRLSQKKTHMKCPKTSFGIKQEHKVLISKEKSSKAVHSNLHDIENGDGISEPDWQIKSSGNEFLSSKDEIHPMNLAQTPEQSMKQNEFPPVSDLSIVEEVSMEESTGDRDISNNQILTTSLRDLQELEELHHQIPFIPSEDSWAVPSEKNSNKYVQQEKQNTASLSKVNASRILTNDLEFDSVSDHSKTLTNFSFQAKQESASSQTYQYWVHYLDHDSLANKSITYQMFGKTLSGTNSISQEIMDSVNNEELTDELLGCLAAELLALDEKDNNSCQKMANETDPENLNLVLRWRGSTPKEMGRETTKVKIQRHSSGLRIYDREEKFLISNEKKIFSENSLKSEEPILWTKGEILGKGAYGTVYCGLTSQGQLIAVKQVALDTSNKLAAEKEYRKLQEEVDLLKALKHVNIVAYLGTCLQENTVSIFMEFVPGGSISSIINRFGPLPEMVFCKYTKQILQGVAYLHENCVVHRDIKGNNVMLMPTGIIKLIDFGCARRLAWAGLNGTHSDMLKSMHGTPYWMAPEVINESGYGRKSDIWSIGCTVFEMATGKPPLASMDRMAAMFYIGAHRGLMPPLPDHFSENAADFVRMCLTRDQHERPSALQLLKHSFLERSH
Excerpt: as §1, §2, §3

[2] = test system: active RhoA in MDA-MB-231 cells; test: Active GTPase pull-down (GST-Rhotekin RBD); type: cell-based, human; settings: 0-3 μM, 1 h
Experimental: FIG. 5: Cytoskeletal changes induced by IODVA1 treatment. IODVA1 inhibits lamellipodia and circular dorsal ruffle (CDR) formation in MDA-MB-231 cells and decreases Rac activation. (A) IODVA1 inhibits EGF-induced lamellipodia formation in MDA-MB-231 cells. MDA-MB-231 cells were plated on fibronectin-coated coverslips, serum starved for 4 h, incubated with the indicated concentrations of IODVA1 for 1 h, then EGF (50 ng/mL) stimulated, fixed and stained with Phalloidin Alexa Fluor 594 (F-Actin, pseudocolored red) and DAPI (nuclei, pseudocolored blue). […] The percentage of cells with CDRs was counted as the number of cells with CDRs normalized to the total number of cells in the field. Around 150 cells were counted per condition per experiment. Cells with multiple CDRs were counted only once. […] Levels of active Rac (RacGTP, % of control), active Cdc42 (Cdc42GTP, % of control) and active RhoA (RhoAGTP, % of control) were quantified using ImageJ and ImageLab and show combined data as mean±s.e.m. from at least 3 independent experiments. […]
To confirm that IODVA1 interferes with Rac activation, applicants checked the levels of active Rac and its downstream effector PAK1/2. MDA-MB-231 cells were incubated with IODVA1 (0-3 μM) for 1 h and levels of GTP-bound active Rac were measured by GST-PAK-GBD pull-downs and quantified (FIG. 5C). […]

## OC1(c2ccccn2)N=C(Nc2nc3ccccc3[nH]2)N=C1c1ccccn1 (stereo not shown) [IODVA1, (Z)-2-((1H-benzo[d]imidazol-2-yl)imino)-4,5-di(pyridin-2-yl)-2,5-dihydro-1H-imidazol-5-ol]
[1]
  inhibitory activity against major wild-type kinases including ABL1 and SRC-like kinases: no inhibitory activity
[1]; 0.5 μM, 364 out of 369
  fraction of tested kinases on which ineffective: 98.6%
YSK4/MAP3K19
  increase in activity: 21%
[2]
  levels of active RhoA: not affected
